PMC12394658, “Discovery of Zharp1-163 as a dual inhibitor of ferroptosis and necroptosis for the treatment of inflammatory disorders and kidney injury” (Cell Death Discovery, 2025)

Key:
Test in all cases: biochemical
Parameters in all cases: Kinase selectivity panel of 81 human kinases, ADP-Glo or HTRF, per cent inhibition at 1 uM
JAK3 = JAK3 (Homo sapiens, UniProt P52333)
How it was run: (§1)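 Kinase-panel selectivity profiling of 81 kinases with compound at 1000 nM.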

CDK2/CycE1 = CDK2/CycE1 (Homo sapiens, UniProt P24941)
How it was run: as §1

GSK3β = biological target: T1, GSK3β (Homo sapiens, UniProt P49841)
T1 construct: gene GSK3B
How it was run: as §1

NEK2 = NEK2 (Homo sapiens, UniProt P51955)
How it was run: as §1

EGFR = EGFR (Homo sapiens, UniProt P00533)
How it was run: as §1

TAOK1 = TAOK1 (Homo sapiens, UniProt Q7L7X3)
How it was run: as §1

TIE2 = biological target: T2, TIE2 (Homo sapiens, UniProt Q02763)
T2 construct: gene TEK
How it was run: as §1

AMPKα1/β1/γ1 = biological target: T3, AMPKα1/β1/γ1 (Homo sapiens, UniProt Q13131)
T3 construct: gene PRKAA1
How it was run: as §1

IRAK4 = IRAK4 (Homo sapiens, UniProt Q9NWZ3)
How it was run: as §1

SGK = biological target: T4, SGK (Homo sapiens, UniProt O00141)
T4 construct: gene SGK1
How it was run: as §1

BRAF = BRAF (Homo sapiens, UniProt P15056)
How it was run: as §1

PLK2 = PLK2 (Homo sapiens, UniProt Q9NYY3)
How it was run: as §1

BRSK2 = BRSK2 (Homo sapiens, UniProt Q8IWQ3)
How it was run: as §1

KDR = KDR (Homo sapiens, UniProt P35968)
How it was run: as §1

T4 sequence (O00141 whole entry): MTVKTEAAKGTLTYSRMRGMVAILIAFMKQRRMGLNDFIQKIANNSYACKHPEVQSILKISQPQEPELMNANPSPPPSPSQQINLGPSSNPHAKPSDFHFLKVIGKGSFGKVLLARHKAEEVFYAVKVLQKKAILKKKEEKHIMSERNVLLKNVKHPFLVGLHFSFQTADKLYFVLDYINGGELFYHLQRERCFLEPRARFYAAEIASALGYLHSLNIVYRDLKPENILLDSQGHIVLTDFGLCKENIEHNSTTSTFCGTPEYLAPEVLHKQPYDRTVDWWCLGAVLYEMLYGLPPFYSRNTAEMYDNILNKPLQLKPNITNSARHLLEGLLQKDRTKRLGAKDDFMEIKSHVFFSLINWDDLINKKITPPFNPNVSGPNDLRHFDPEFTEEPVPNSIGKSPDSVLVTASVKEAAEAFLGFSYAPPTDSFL
Sequence of BRAF (P15056 whole entry): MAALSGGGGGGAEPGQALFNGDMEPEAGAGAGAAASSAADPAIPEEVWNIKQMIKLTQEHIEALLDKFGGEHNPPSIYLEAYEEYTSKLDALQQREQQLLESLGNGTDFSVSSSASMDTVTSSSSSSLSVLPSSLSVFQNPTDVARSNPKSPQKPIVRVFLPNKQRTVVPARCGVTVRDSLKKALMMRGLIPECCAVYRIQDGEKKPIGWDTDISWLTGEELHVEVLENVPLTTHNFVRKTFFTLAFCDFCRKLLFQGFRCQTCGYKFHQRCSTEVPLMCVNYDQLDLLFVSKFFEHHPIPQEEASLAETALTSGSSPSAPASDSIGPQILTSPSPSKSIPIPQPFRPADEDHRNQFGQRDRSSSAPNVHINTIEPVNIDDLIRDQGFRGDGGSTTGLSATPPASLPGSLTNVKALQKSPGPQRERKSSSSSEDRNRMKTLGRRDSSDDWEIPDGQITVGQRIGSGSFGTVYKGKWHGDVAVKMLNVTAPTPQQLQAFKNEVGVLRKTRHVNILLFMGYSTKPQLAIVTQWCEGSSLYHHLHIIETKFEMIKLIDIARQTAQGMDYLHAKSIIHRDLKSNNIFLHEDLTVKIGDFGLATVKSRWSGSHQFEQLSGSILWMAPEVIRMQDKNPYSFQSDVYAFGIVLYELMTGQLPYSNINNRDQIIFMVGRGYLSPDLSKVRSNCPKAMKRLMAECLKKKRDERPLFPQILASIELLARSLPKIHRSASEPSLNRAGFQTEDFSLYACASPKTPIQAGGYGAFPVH
Sequence of TAOK1 (Q7L7X3 whole entry): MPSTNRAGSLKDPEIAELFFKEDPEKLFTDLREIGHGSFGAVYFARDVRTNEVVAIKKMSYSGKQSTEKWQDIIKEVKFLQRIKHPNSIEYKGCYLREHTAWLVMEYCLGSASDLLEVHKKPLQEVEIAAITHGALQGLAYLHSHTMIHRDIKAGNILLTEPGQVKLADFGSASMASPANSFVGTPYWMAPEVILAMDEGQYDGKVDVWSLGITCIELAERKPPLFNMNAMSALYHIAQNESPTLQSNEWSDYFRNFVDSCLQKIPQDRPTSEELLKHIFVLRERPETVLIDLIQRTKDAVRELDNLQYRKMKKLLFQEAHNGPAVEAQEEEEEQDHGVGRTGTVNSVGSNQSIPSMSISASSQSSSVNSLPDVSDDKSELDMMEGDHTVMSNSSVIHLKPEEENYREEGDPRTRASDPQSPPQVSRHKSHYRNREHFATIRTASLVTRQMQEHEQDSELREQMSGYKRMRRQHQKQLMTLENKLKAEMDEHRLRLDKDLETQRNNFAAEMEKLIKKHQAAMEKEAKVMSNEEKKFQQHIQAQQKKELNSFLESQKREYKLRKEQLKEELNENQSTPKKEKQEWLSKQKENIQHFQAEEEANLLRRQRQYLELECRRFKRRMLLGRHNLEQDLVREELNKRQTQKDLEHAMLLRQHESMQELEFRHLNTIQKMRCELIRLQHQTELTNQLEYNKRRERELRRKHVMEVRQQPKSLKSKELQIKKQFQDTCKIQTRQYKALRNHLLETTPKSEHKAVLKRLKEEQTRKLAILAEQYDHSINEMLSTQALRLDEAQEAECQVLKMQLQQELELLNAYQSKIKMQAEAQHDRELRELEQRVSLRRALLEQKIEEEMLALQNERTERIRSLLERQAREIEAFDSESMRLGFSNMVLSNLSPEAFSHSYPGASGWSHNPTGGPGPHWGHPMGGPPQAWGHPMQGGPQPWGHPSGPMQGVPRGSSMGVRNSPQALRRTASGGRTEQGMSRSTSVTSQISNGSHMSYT
T2 sequence (Q02763 whole entry): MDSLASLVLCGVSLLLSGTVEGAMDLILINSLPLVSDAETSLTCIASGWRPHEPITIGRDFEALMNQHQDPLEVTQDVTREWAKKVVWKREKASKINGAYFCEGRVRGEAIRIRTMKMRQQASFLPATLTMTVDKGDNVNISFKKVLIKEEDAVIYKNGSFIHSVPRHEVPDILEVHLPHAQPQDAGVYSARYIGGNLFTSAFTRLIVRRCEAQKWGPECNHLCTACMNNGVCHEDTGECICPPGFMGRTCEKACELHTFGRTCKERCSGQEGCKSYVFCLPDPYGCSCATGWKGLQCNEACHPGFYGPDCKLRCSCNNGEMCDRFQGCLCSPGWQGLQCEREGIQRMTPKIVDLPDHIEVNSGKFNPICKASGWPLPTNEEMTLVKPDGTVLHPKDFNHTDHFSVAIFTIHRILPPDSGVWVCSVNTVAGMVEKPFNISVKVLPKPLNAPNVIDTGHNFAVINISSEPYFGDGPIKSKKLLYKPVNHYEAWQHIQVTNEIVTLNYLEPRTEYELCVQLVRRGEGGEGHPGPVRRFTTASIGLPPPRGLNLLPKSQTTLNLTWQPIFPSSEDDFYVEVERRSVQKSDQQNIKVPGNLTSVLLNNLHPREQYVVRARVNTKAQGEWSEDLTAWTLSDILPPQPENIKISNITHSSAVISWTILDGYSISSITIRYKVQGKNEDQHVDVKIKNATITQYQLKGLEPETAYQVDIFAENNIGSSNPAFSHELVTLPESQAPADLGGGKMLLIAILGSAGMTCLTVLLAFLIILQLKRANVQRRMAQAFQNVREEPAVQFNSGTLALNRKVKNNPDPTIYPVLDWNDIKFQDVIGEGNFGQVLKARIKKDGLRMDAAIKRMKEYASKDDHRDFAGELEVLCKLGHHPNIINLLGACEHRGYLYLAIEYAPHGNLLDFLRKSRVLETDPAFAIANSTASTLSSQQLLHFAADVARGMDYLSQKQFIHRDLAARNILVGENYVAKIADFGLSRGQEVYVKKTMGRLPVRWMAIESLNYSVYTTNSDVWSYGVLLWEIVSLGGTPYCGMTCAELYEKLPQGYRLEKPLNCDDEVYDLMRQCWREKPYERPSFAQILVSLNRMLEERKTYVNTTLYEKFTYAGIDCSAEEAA
T3 sequence (Q13131 whole entry): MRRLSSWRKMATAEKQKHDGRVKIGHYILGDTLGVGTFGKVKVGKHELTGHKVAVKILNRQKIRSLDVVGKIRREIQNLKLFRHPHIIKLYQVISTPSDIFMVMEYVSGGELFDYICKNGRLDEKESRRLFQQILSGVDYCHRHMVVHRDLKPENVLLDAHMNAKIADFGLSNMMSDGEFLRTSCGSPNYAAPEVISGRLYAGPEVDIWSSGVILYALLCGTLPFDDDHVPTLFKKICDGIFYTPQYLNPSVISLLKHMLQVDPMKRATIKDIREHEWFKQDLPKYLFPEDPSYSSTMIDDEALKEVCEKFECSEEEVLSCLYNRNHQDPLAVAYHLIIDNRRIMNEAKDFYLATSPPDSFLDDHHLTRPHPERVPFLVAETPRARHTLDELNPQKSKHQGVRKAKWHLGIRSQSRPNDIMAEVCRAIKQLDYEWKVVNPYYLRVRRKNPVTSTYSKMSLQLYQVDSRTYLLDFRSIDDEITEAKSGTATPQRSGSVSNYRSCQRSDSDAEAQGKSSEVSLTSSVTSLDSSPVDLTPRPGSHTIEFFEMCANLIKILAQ
T3 sequence (P54619 whole entry partner): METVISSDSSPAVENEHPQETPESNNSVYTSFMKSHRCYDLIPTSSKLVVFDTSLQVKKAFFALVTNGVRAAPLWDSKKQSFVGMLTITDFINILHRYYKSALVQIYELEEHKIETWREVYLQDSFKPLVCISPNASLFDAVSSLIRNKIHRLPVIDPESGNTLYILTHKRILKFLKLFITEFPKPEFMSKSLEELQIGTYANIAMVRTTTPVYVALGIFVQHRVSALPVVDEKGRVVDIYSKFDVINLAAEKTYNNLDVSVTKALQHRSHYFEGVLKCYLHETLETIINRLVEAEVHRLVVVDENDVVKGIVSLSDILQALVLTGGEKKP
T3 sequence (Q9Y478 whole entry partner): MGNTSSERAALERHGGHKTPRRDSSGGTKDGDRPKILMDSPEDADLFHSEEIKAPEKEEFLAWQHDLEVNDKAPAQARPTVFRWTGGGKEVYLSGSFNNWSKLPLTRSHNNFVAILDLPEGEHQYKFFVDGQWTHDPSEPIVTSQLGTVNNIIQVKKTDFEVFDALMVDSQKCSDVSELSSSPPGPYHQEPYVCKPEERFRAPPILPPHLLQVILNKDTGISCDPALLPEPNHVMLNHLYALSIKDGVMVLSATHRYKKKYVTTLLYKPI
Sequence of IRAK4 (Q9NWZ3 whole entry): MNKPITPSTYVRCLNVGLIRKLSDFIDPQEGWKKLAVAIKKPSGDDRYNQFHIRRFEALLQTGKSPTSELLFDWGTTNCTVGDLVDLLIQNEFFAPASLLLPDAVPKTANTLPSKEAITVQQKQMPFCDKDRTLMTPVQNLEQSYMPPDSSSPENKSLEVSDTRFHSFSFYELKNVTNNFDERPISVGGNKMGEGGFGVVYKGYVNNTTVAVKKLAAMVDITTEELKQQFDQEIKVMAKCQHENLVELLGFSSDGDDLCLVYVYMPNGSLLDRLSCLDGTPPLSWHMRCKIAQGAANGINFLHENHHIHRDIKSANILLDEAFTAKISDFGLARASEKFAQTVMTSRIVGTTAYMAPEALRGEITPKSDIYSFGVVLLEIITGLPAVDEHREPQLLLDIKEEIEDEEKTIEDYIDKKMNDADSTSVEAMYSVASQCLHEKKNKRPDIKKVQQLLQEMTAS

- inhibition at 1 µM (JAK3; replicate Data1): -1.37%
- inhibition at 1 µM (JAK3; replicate Data2): 7.33%
- inhibition at 1 µM (CDK2/CycE1; replicate Data1): 3.25%
- inhibition at 1 µM (CDK2/CycE1; replicate Data2): -0.65%
- inhibition at 1 µM (GSK3β; replicate Data1): 11.8%
- inhibition at 1 µM (GSK3β; replicate Data2): -2.82%
- inhibition at 1 µM (NEK2; replicate Data1): -4.5%
- inhibition at 1 µM (NEK2; replicate Data2): 1.76%
- inhibition at 1 µM (EGFR; replicate Data1): -2.16%
- inhibition at 1 µM (EGFR; replicate Data2): -4.3%
- inhibition at 1 µM (TAOK1; replicate Data1): 2.07%
- inhibition at 1 µM (TAOK1; replicate Data2): -4.35%
- inhibition at 1 µM (TIE2; replicate Data1): 11.9%
- inhibition at 1 µM (TIE2; replicate Data2): 26.5%
- inhibition at 1 µM (AMPKα1/β1/γ1; replicate Data1): 12.1%
- inhibition at 1 µM (AMPKα1/β1/γ1; replicate Data2): 6.96%
- inhibition at 1 µM (IRAK4; replicate Data1): 8.12%
- inhibition at 1 µM (IRAK4; replicate Data2): 17.2%
- inhibition at 1 µM (SGK; replicate Data1): 2.39%
- inhibition at 1 µM (SGK; replicate Data2): 0.81%
- inhibition at 1 µM (BRAF; replicate Data1): 6.11%
- inhibition at 1 µM (BRAF; replicate Data2): -8.57%
- inhibition at 1 µM (PLK2; replicate Data1): -2.91%
- inhibition at 1 µM (PLK2; replicate Data2): -19.7%
- inhibition at 1 µM (BRSK2; replicate Data1): -6.15%
- inhibition at 1 µM (BRSK2; replicate Data2): -3.32%
- inhibition at 1 µM (KDR; replicate Data1): -2.59%
- inhibition at 1 µM (KDR; replicate Data2): -4.74%
SMILES: Nc1cn2cc(-c3cnc4c(c3)N(C(=O)OC3CCCCC3)CCO4)ccc2n1 [Zharp1-163]
